Experimental data reported in patent EP0123546A2, “Compositions for treating inflammation and eliciting analgesia” (Norwich Eaton Pharmaceuticals, Inc., priority 1983, dated 1984).
Like-named read-outs stand apart in the source and are kept apart here.

Tests used:
[1] = system: ultraviolet light-induced cutaneous erythema; experiment: ultraviolet light-induced cutaneous erythema test (Winder et al.); type: in vivo, guinea pigs; conditions: Cavia porcellus, po; linear regression of log dose versus percent protection, combined 2, 3 and 4 hour readings
Protocol: Guinea pigs weighing 280-715 g were fasted 24 hours and the dorsal-lateral surface was cleared by clipping and chemical depilation. The animals were placed in an opaque rubber glove with three circular, 6 mm punched holes. Exposure for 90 seconds at a distance of 7 cm to a Model 30620 Hanovia ultraviolet lamp with a Type 616A bulb and Type 6540-001 filter produced the erythema. (I) in methylcellulose was administered orally one hour before irradiation to groups of 5 animals at doses from 5 to 153 mg/kg at a rate of 10 mI/kg. Erythema was scored at 2, 3 and 4 hours post-irradiation as 0 (no redness), 0.5 (slight redness) or 1 (full red circle). Percent protection was calculated with reference to a vehicle-dosed control group of 5 animals treated on the same day. ED50 values were estimated by linear regression analysis of the log dose versus percent protection (combined 2, 3 and 4 hour readings) relationship.

[2] = system: phenylquinone-induced writhing; experiment: antagonism of phenylquinone-induced writhing (Hendershot and Forsaith); type: in vivo, male albino mice; conditions: for Mean percent protection: one hour before phenylquinone i.p.; for ED50: Mus musculus, read-out: dose giving 50% protection (ED50)
Protocol: Groups of 10 fasted male albino mice, 14-28 g. were dosed by gavage with 18-1,000 mg/kg (I) in 0.5% (w/v) methylcellulose or with methylcellulose solution alone. One hour later each mouse received 10 ml/kg of 0.02% phenylquinone in 5% ethanol intraperitoneally. The characteristic writhing responses were observed and counted from 5 to 15 minutes after phenylquinone administration.

[3] = system: carrageenin-induced rat paw edema; experiment: carrageenin-induced rat paw edema method (Winter et al.); type: in vivo, male Wistar rats; conditions: for protection: 300 mg/kg p.o.
Description: The compound 5-(4-chlorophenyl)-2-furancarboxylic acid (I) [drawing 1] and its preparation have been described in the chemical literature (Mathur et al. , J. Chem. Soc., 1961 (Part 2), 2576-2578). It has now been discovered that this compound exerts impressive anti-inflammatory activity using the well recognized carrageenin- induced rat paw edema method described by Winter et al. in Proc. Soc. […] Positive results secured under this method are correlative to successful performance in other species where the need for anti-inflammatory medication is present.
In accordance with the aforementioned -method, fasted male Wistar rats, 100-125 g., were dosed in groups of 3 with […] p.o. of (1) in 0.5% (wlv) methylcellulose. A control group of 20 rats (groups of 5 rats each combined from 4 separate experiments) received methylcellulose only at the same dose rate of 10 ml/kg. One hour later 0.05 ml of 1% (w/v) carrageenin was injected into the plantar region of the right hindpaw of each rat, using a 27-gauge 1/2-inch needle. Before oral dosing and at 4 and 6 hours post-carrageenin, hindpaw volumes were determined by immersing the feet in a liquid mercury bath to the level of the anatomical hairline. Displacement of the mercury was determined as a pressure difference, measured through a Statham venous pressure transducer coupled to a Grass Model 7 polygraph. The polygraph was calibrated such that a 1 ml displacement produced a 1 mm pen deflection. Two consecutive measurements were taken in all cases and the mean value used in calculations. Calculation of the ED50 value was done as described below for the mouse writhing data. Mean percent protection increased at 4 hours from 0 to 3 mg/kg p.o. to 51.5 at 100 mg/kg p.o. and at 6 hours from 16.6 at 3 mg/kg to 39.9 at 100 mg/kg in a dose-dependent manner. The high dose of 300 mg/kg p.o. gave 34.9 and 23.2% protection at 4 and 6 hours, respectively.

[4] = system: ultraviolet light-induced cutaneous erythema; conditions: similar evaluation; Goldenberg et al., op cit.; cited from earlier work
[5] = system: carrageenin-induced rat paw edema; conditions: same test; Goldenberg et al., Arch. Int. Pharmacodyn. Ther., 243:331-350, 1980; cited from earlier work

Compound | ED50 [1] | Mean percent protection ([2]; 18 mg/kg by gavage) | Mean percent protection ([2]; 1,000 mg/kg by gavage) | ED50 ([2]; linear regression of log oral dose versus percent protection) | Mean percent protection ([3]; 3 mg/kg p.o., 4 hours post-carrageenin) | Mean percent protection ([3]; 3 mg/kg p.o., 6 hours post-carrageenin) | Mean percent protection ([3]; 100 mg/kg p.o., 4 hours post-carrageenin) | Mean percent protection ([3]; 100 mg/kg p.o., 6 hours post-carrageenin) | protection ([3]; 4 hours post-carrageenin) | protection ([3]; 6 hours post-carrageenin) | ED50 ([3]; Rattus norvegicus, 4 hours post-carrageenin, oral dose 1 hour before carrageenin) | ED50 estimate [4] | ED50 ([2]; po) | ED50 value [5]
O=C(O)c1ccc(-c2ccc(Cl)cc2)o1 [(I), 5-(4-chlorophenyl)-2-furancarboxylic acid] | 24 mg/kg | 13.1% | 92.4% | 213 mg/kg | 0% | 16.6% | 51.5% | 39.9% | 34.9% | 23.2% | 84.2 mg/kg |  |  | 
CC(=O)Oc1ccccc1C(=O)O [aspirin] |  |  |  |  |  |  |  |  |  |  |  | 49.5 mg/kg p.o. | 182 mg/kg | 155 mg/kg p.o.
